Measured values as given in PubChem BioAssay (NCI).
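Five compound concentrations were applied to cells in 96-well plates for 48 hours; endpoints were derived by simple linear interpolation of the resulting dose-response curve. Here, GI50 denotes the concentration required for 50% inhibition of growth. TGI is the concentration that stops growth completely.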

What was measured:
Experiment in all cases: NCI-60 cell line screen, 48 h
A549 NSCLC = system: A549 NSCLC
DU-145 prostate = system: DU-145 prostate
HCT-15 colon = system: HCT-15 colon
HL-60(TB) leukemia = system: HL-60(TB) leukemia
K-562 leukemia = system: K-562 leukemia
KM12 colon = system: KM12 colon
M14 melanoma = system: M14 melanoma
MDA-MB-231 breast = system: MDA-MB-231 breast
NCI-H23 lung = system: NCI-H23 lung
NCI-H460 lung = system: NCI-H460 lung
OVCAR-4 ovarian = system: OVCAR-4 ovarian
OVCAR-5 ovarian = system: OVCAR-5 ovarian
PC-3 prostate = system: PC-3 prostate
SK-MEL-2 melanoma = system: SK-MEL-2 melanoma
UACC-257 melanoma = system: UACC-257 melanoma
MDA-MB-435 = system: MDA-MB-435
RXF 393 renal = system: RXF 393 renal

SMILES	TGI (A549 NSCLC)	TGI (DU-145 prostate)	TGI (HCT-15 colon)	TGI (HL-60(TB) leukemia)	TGI (K-562 leukemia)	TGI (KM12 colon)	TGI (M14 melanoma)	TGI (MDA-MB-231 breast)	TGI (NCI-H23 lung)	TGI (NCI-H460 lung)	TGI (OVCAR-4 ovarian)	TGI (OVCAR-5 ovarian)	TGI (PC-3 prostate)	TGI (SK-MEL-2 melanoma)	TGI (UACC-257 melanoma)	TGI (MDA-MB-435)	TGI (RXF 393 renal)	GI50 (A549 NSCLC)	GI50 (OVCAR-4 ovarian)	GI50 (RXF 393 renal)
Cc1cccc(N(C(=O)Nc2ccc(Cl)c(Cl)c2)C2=NCC(C)S2)c1 (centres undefined)	> 100 µM	> 100 µM	> 100 µM	> 100 µM	> 100 µM	> 100 µM	> 100 µM	> 100 µM	> 100 µM	> 100 µM	> 100 µM	> 100 µM	> 100 µM	> 100 µM	> 100 µM	–	–	–	–	–
Cn1c(O)c(C=Nc2ccccc2[N+](=O)[O-])c(=O)n(C)c1=O	> 100 µM	–	> 100 µM	–	> 100 µM	> 100 µM	> 100 µM	> 100 µM	> 100 µM	> 100 µM	> 100 µM	> 100 µM	> 100 µM	> 100 µM	> 100 µM	> 100 µM	> 100 µM	–	–	–
CC1=NN(c2nc(N)nc(CSc3nc4n(c(=S)n3)CCN4)n2)C(C)(C)C1	–	–	> 100 µM	> 100 µM	> 100 µM	> 100 µM	> 100 µM	> 100 µM	> 100 µM	> 100 µM	> 100 µM	–	> 100 µM	62.6 µM	> 100 µM	> 100 µM	38.7 µM	–	–	–
C[C@H](NC(=O)c1ccc(CNC(=O)/C=C/c2cccc(Oc3ccccc3)c2)cc1)c1ccccc1	> 100 µM	> 100 µM	> 100 µM	–	> 100 µM	> 100 µM	> 100 µM	> 100 µM	> 100 µM	> 100 µM	> 100 µM	> 100 µM	> 100 µM	> 100 µM	> 100 µM	> 100 µM	80.3 µM	–	–	–
CCN(CC)/C(Sc1ccccc1)=C(\C(Cl)=C(Cl)Cl)[N+](=O)[O-]	52.4 µM	34.9 µM	34.8 µM	5.94 µM	31.9 µM	36.3 µM	37.5 µM	50.5 µM	36.1 µM	50.3 µM	> 100 µM	–	33.3 µM	–	44.5 µM	27.7 µM	36.8 µM	–	–	–
CC(C)OCC1CC(CC(=O)Nc2nncs2)C(=O)O1 (centres undefined)	> 100 µM	> 100 µM	> 100 µM	–	> 100 µM	> 100 µM	> 100 µM	> 100 µM	> 100 µM	> 100 µM	> 100 µM	> 100 µM	> 100 µM	> 100 µM	> 100 µM	> 100 µM	–	–	–	–
CCCCCCCCCCCCCCCCOCC(CC(F)(F)P(=O)(OCC)OCC)OC(C)=O (centres undefined)	24.7 µM	28.8 µM	20.2 µM	–	48.9 µM	23.8 µM	31.9 µM	30.1 µM	34.6 µM	26.3 µM	29.3 µM	34.7 µM	26.7 µM	35.9 µM	33 µM	33.9 µM	38.5 µM	–	–	–
O=c1ccn([C@@H]2C[C@@H]2CO)c(=O)[nH]1	> 100 µM	> 100 µM	> 100 µM	> 100 µM	> 100 µM	> 100 µM	> 100 µM	–	> 100 µM	> 100 µM	> 100 µM	> 100 µM	> 100 µM	> 100 µM	> 100 µM	> 100 µM	> 100 µM	–	–	–
CC(=O)O[C@H]1C(=O)[C@@]2(C)[C@H]([C@H](OC(=O)c3ccccc3)[C@]3(O)C[C@H](OC(=O)[C@H](O)[C@@H](NC(=O)c4cccc(N=[N+]=[N-])c4)c4ccccc4)C(C)=C1C3(C)C)[C@]1(OC(C)=O)CO[C@@H]1C[C@@H]2O	> 25 µM	–	> 25 µM	< 0.0025 µM	0.0242 µM	> 25 µM	3.23 µM	0.422 µM	–	> 25 µM	> 25 µM	1.06 µM	> 25 µM	–	–	0.00412 µM	0.897 µM	–	–	–
N#Cc1c(-c2ccc([N+](=O)[O-])cc2)c(C#N)c(=O)n(NS(=O)(=O)c2ccccc2)c1-c1ccccc1	> 100 µM	–	> 100 µM	> 100 µM	> 100 µM	> 100 µM	> 100 µM	> 100 µM	–	> 100 µM	> 100 µM	> 100 µM	> 100 µM	> 100 µM	> 100 µM	> 100 µM	> 100 µM	–	–	–
COc1cc2c(cc1OCCCCN1C(=O)c3cccc4cccc(c34)C1=O)N=C[C@@H]1CCCN1C2=O	> 53.4 µM	14.3 µM	14.8 µM	–	> 100 µM	13.2 µM	> 34.3 µM	29.4 µM	11.5 µM	14.4 µM	18.3 µM	> 100 µM	> 70.3 µM	17.9 µM	37.7 µM	> 35.6 µM	3.63 µM	–	–	–
COc1cccc([C@H]2C/C(=N\NC(=O)C(=O)N[C@@H](C)c3ccccc3)c3ccccc3N2)c1	> 100 µM	15.6 µM	> 100 µM	–	0.0554 µM	0.0762 µM	> 100 µM	41.4 µM	–	–	> 100 µM	> 100 µM	> 100 µM	> 100 µM	> 100 µM	–	> 100 µM	0.0366 µM	45.3 µM	0.0303 µM
Cc1ccc(/C=C/c2nnc(N/N=C/c3ccc4c(c3)OCO4)[nH]c2=O)cc1	> 100 µM	38.7 µM	> 100 µM	–	70.7 µM	46.9 µM	> 100 µM	29.9 µM	32.5 µM	57.6 µM	36.8 µM	> 100 µM	43.3 µM	78.9 µM	> 100 µM	> 100 µM	> 100 µM	–	–	–
COC(=O)c1sc(=S)sc1SCc1ccc(CSc2sc(=S)sc2C(=O)OC)cc1	> 100 µM	> 100 µM	> 100 µM	–	> 100 µM	> 100 µM	> 100 µM	> 100 µM	> 100 µM	> 100 µM	> 100 µM	> 100 µM	> 100 µM	> 100 µM	> 100 µM	> 100 µM	> 100 µM	–	–	–
